Laboratory results taken from US8093030B2, “Thermostable viral polymerases and methods of use” (Lucigen Corporation, priority 2005, dated 2012).

B1: Clone 488: thermostable viral DNA polymerase clone, polypeptide SEQ ID NO: 4 (protein)
chain: AVGTWITTLQKLGFTYEELEDKEVLDLLSIARLVLPERFKENGFSLDVVLKEVLGIDYKFDKKTIRKTFTPLLMTQEQLEYIASDVIYLPALKEKLDEKFNKRLWLPYILDMEATKILAEVSNNGMPFLKEKAKEELSRLSKELEGLRKELGFNPNSPKETQKVLNTPDTSEATLMKLIISNSSKKAIAEKVIQARKIQKVIAMINKYLNYDRVKGTFWTTTAPSGRMSCDKENLQQIPRSIRYLFGFDENSDKTLVIADYPQIELRLAGVLWKEPKFIQAFNEGKDLHKQTASIIYGIPYEEVNKEQRQIAKSANFGLIYGMSVEGFANYCIKNGIPMDTQTAQHIVNSFFNFYGKIAEKHKEGNLIIQSQGIAEGYTWLGRRYIAQRLNDYLNYQIQGSGAELLKKAVMEIKSKYPYIKIVNLVHDEIVVEAYKDDAQDIARIIKQEMENAWEWCIQEAQKLGVDLTPVKLECENPTISNVWEK
modifications: Uncultured newly isolated virus
B2: Clone 4110: thermostable viral DNA polymerase clone, polypeptide SEQ ID NO: 8 (protein)
chain: MGLDQILDMSYFVDSGATMLKLILRGSGGKNVVTVPAPFNPYFFIKKRDLDRAQSILPDYARVEDADAITAEGERVVKISVPTPPLVRVVREKLHEEGIESYEADIPYTRRVMIDLDLKVAYPETVAAFDIEVDATKGFPDINNPQSRVLSISVYDGSEEIFLCSDDEIEMFKEFNKLLRKYDVLIGWNSAAFDYPYLVERAKVLGYYVDEEMFQHVDIFGIFQTYFKREMSDFKLKTVALKVLGSKVPLGALLDFERPGDIRKLTEFFEKRRDLLKLYNMDQTKAIWMINSESGVLQTYITQARLANIIPWHRVSPRTDSSQEYISYNNDCRDLVLKKALAHKPRIVFPSKKNGENEDWDEDAKESTYTGAIVFNPIPGLWENVVLLDFASMYPRVIMTFNISYDTWTPNPGENDILAPHGGFITSREGFLPTVLRELEGYRSLAKKMVDAYEPGDPMRVIWNARQFAFKLILVSAYGVAGFRHSRLYRVEIAESITGYTRDAIMKAREVIERHGWRVLYGDTDSLFLYNPKITSVEKASEVASSELLPAINSFIRDYVVERWRVPRSRVVLEFKVDRVYSKLKLLSVKKRYYGLVAWEERMLEQPYIQIKGLEARRGDWPDLVKEIQSEVIKLYLLEGPIAVDRYLKEMKRKLLSGEIPLEKLVIKKHLNKRLDEYKHNAPHYRAARKLLEMRFPVRTGDRIEFIYLDDKVIPMVPGLKLSEVDLKKWWRKYVVPVVERLEIESRGS
modifications: Uncultured newly isolated virus
B3: Clone 967: thermostable viral DNA polymerase clone, polypeptide SEQ ID NO: 14 (protein)
chain: MQKEIPFNYNSPKQTAKLFGIDSSSKDVLMDLALRGNEVAKKVLEARQIEKSLAFAKDLYDIAKKNGGRIHGNFFTTTAPSGRMSCSDINLQQIPRRLRQFIGFETEDKKLITADFPQIELRLAGVMWNEPEFLKAFRDGIDLHKLTASILFDKKINEVSKEERQIGKSANFGLIYGISPKGFAEYCISNGINITEEMAIEIVKKWKKFYRKIAEQHQLAYERFKYAEFVDNETWLNRPYRAYKPQDLLNYQIQGSGAELFKKAIILLKETKPDLKLVNLVHDEIVVETSTEEAEDIALLVKQKMEEAWDYCLEKAKEFGNNVADIKLEVEKPNISSVWEKE
modifications: Uncultured newly isolated virus

Columns and labels:
[1] = target: polymerase 3173 (SEQ ID NO:6) mutant D49A (uncultured virus, UniProt R4KMS7, D72A); assay: Inhibition of 5' Rox-labeled primer extension by chain terminators (ABI 310 Genetic Analyzer); type: biochemical; details: ddNTPs 50, 500 and 5000 μM each vs 50 μM each dNTP (up to 100-fold molar excess); 70° C., 30 minutes
polymerase 3173 (SEQ ID NO:6) mutant D49A, sequence (R4KMS7 entry or part of it D72A): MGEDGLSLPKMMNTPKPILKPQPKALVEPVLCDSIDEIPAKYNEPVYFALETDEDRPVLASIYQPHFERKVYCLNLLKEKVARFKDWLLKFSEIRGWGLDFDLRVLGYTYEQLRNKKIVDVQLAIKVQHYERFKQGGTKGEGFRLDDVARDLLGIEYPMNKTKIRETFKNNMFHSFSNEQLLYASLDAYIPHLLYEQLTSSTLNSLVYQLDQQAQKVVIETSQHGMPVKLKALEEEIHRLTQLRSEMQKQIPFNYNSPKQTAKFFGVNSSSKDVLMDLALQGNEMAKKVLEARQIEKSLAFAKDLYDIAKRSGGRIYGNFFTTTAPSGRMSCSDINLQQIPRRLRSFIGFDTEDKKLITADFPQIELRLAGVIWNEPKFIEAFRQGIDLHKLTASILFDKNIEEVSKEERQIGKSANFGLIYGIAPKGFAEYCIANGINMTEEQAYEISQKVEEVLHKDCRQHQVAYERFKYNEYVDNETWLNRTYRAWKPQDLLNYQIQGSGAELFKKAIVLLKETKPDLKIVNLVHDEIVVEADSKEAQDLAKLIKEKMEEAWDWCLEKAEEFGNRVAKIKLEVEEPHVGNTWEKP
Method: (§1) In separate reactions, ddGTP, ddATP, ddTTP, and ddCTP were added to the above mix in concentrations of 50, 500 and 5000 μM each. Five units of polymerase 3173 mutant D49A were added and the reactions were incubated for 30 minutes at 70° C. Extension of the primer was detected by the ABI 310 Genetic Analyzer in Gene Scan mode.

[2] = target: polymerase 3173 (SEQ ID NO:6) double mutant D49A/F418Y, SEQ ID NO:27 (uncultured virus, UniProt R4KMS7, D72A/F441Y); assay: Fluorescent primer extension assay with ddGTP; type: biochemical
polymerase 3173 (SEQ ID NO:6) double mutant D49A/F418Y, SEQ ID NO:27, sequence (R4KMS7 entry or part of it D72A/F441Y): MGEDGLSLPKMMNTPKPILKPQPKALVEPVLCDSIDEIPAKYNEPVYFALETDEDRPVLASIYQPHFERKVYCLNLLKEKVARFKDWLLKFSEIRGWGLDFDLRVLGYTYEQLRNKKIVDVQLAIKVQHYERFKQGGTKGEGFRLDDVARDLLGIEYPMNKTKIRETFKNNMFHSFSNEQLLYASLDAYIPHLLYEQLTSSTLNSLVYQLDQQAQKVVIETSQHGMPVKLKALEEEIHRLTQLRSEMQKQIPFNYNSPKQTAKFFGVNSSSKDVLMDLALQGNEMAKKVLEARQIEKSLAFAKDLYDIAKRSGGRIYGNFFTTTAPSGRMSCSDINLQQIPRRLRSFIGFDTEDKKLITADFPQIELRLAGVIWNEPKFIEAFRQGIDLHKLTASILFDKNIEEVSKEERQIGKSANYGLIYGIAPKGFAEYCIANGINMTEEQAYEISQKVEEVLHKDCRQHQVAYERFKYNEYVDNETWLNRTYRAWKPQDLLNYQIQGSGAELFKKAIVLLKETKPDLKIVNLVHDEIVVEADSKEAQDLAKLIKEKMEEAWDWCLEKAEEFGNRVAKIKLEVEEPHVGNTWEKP
Method: as §1
The polymerase 3173 double mutant D49A/F418Y was also tested in the fluorescent primer extension assay described above.

lacIq gene = assay: Fidelity assay, lacIq amplification with blue/white colony count; details: 25 PCR cycles; target size 349 for lacIq
Method: Fidelity was determined by a modification of the standard assay in which the lacIq gene is amplified by the DNA polymerase of interest and inserted into a plasmid containing genes encoding a functional lacZ alpha peptide and a selectable marker. Primers of SEQ ID NOS:28 and 29 were used to amplify a sequence containing both the lacIq and the KanR gene. […] Normally a white phenotype is seen for clone containing this construct when plated on X-Gal. Mutation of the lacIq results in a blue phenotype for the colonies when plated on X-Gal.
For high fidelity PCR amplification, five units of the wild-type (proofreading) DNA polymerase 3173 (SEQ ID NO: 6) was tested using the following mix (50 mM Tris HCl (pH 9.0 at 25° C.), 50 mM KCl, 10 mM (NH4)2SO4, 1.5 mM MgSO4, 1.5 mM MgCl2, 0.1% triton-X100, 250 mM ectoine and 0.2 mM each of dGTP, dATP, dTTP and dCTP. Opposing primers of SEQ ID 28 and 29 (1 μM each) amplified the expected 2 k kb product from template SEQ ID 30 (10 ng). After thermal cycling (94° C. for 1 minute, 25 cycles of (94° C. for 15 seconds, 60° C. for 15 seconds, 72° C. for 2.5 minutes) and 72° C. 7 minutes), reaction products were quantified to determine “fold amplification,” (see below) using agarose gel electrophoresis. Both primers contain Eco109I sites. The PCR product was digested with Eco109I and inserted into the Eco109I site of pUC19. 10 G cells transformed by the construct were plated on LB plates containing ampicillin (100 μg/ml), kanamycin (30 μg/ml) and X-Gal (50 μg/ml). Blue and white colony counts were used for the fidelity determinations.

[3] = tested on: ROX-labeled 37 nt primer annealed to 41 nt template; assay: Primer extension assay of heat-treated clone extracts (ABI 310 capillary electrophoresis); type: biochemical; details: extract heated 70° C. 10 min; reaction 70° C. 10 minutes
Method: 34 complete polymerase genes from the library described in Examples 3 and 4, as well as 24 additional viral genes from three other similarly prepared libraries, were constitutively expressed in the E. CLONI 10 G cells (Lucigen, Middleton, Wis.). The proteins were extracted, heated to 70° C. for 10 minutes and tested for DNA polymerase activity using a primer extension assay as follows.
A primer of 37 nucleotides having the sequence shown in SEQ ID NO:23, labeled on its 5′ end with ROX, was annealed to a template of 41 nucleotides having the sequence shown in SEQ ID NO:24. […] The reaction was incubated at 70° C. for 10 minutes. The reactions were analyzed using an ABI 310 Genetic Analyzer. […] Of the 58 clones tested, a total of ten clones expressed detectable DNA polymerase (DNAP) activity. The clone number and corresponding polynucleotide sequence, polypeptide sequence, sequence similarity and E (expect)-values for these polymerases are shown below in Table 1.

Molecule | inhibition of primer extension [1] | Exo (exonuclease activity, either 3′-5′ or 5′-3′) [3] | further results
Nc1ncnc2c1ncn2[C@H]1CC[C@@H](COP(=O)(O)OP(=O)(O)OP(=O)(O)O)O1 [ddATP] | no inhibition of primer extension was detected |  | 
Nc1ccn([C@H]2CC[C@@H](COP(=O)(O)OP(=O)(O)OP(=O)(O)O)O2)c(=O)n1 [ddCTP] | no inhibition of primer extension was detected |  | 
Nc1nc2c(ncn2[C@H]2CC[C@@H](COP(=O)(O)OP(=O)(O)OP(=O)(O)O)O2)c(=O)[nH]1 [ddGTP] | no inhibition of primer extension was detected |  | inhibition of primer extension ([2]; 0.2× ratio of ddGTP:dGTP): nearly complete inhibition of primer extension, with no extension continuing beyond the fourth G residue; inhibition of primer extension ([2]; 2× ratio of ddGTP:dGTP): almost completely inhibited any extension
Cc1cn([C@H]2CC[C@@H](COP(=O)(O)OP(=O)(O)OP(=O)(O)O)O2)c(=O)[nH]c1=O [ddTTP] | no inhibition of primer extension was detected |  | 
Taq: standard commercial DNA polymerase (Lucigen) used for comparison [reference compound] |  |  | Fidelity (lacIq gene): 9.76E+03
B1 |  | No | 
B2 |  | No | 
B3 |  | No | 
